Patent US20250034115A1, “CRYSTALLINE FORMS OF C-C CHEMOKINE RECEPTOR TYPE 4 ANTAGONIST AND USES THEREOF” (RAPT THERAPEUTICS, INC., priority 2023, published 2025)

Experiment: Salt screen, comments on water content / hydration versus humidity
Assay type: physicochemical
Description: Experiments to form salts were performed and evaluated using 45 different acids and bases and 15 different solvents, either alone or in some combination, which are listed in Table 1 below, and notable results of those experiments are presented in Table 2 below. L-arginine Saccharin Methyl isobutyl ketone

## O=C(O)[C@H](O)[C@@H](O)C(=O)O [L-Tartaric Acid]
0.5 equiv, polymorph formed at higher (>70° C.) temperature compared with polymorph formed at ambient temp
  level of hydration over humidity range (Additional Comments): temperature had a more stable level

## Cc1nc(N2CC([C@H]3CCCN([C@H]4C[C@](C)(C(=O)[O-])C4)C3)C2)nc(N[C@H](C)c2ccc(Cl)cc2Cl)c1Cl.[Na+] [NaOH, (1R,3r)-3-((R)-3-(1-(5-chloro-4-(((R)-1-(2,4-dichlorophenyl)ethyl)amino)-6-methylpyrimidin-2-yl)azetidin-3-yl)piperidin-1-yl)-1-methylcyclobutane-1-carboxylic acid, sodium salt]
1.0 equiv, water, highly variable water content based on humidity
  hygroscopicity (Additional Comments): Highly hydroscopic (highly variable
